Assay results taken from ChEMBL document CHEMBL5528048, “Discovery of Novel Potent and Fast BTK PROTACs for the Treatment of Osteoclasts-Related Inflammatory Diseases” (J Med Chem, 2024).
The source made the active and inactive calls. The calls are words filed in the database; no cut-off is given here.

Assays:
[1] = biological target: T1, Protein cereblon/Tyrosine-protein kinase BTK (Homo sapiens, UniProt Q06187+Q96SW2); assay: PROTAC activity at BTK/CRBN in human MINO cells assessed as BTK protein degradation at 100 nM measured after 24 hrs by Western blotting analysis relative to control; assay type: cell-based
T1 sequence (Q06187 2-659 limits assumed): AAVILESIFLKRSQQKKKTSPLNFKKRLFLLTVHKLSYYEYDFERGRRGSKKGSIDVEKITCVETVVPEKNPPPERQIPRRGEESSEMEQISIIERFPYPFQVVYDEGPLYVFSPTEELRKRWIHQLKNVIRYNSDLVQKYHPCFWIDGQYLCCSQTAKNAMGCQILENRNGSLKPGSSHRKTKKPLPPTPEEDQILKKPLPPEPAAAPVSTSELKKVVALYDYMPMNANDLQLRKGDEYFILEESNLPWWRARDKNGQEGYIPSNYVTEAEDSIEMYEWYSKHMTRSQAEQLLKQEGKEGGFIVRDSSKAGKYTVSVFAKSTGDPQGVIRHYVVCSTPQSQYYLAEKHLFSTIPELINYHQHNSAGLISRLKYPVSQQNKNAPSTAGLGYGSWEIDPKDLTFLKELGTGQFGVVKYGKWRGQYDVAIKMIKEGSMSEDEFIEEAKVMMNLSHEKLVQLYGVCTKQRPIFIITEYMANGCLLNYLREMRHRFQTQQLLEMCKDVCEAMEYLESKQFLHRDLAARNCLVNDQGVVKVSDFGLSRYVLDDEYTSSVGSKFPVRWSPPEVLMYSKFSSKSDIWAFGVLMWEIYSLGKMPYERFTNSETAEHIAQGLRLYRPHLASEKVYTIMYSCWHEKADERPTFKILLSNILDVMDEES
T1 sequence (Q96SW2 whole entry partner): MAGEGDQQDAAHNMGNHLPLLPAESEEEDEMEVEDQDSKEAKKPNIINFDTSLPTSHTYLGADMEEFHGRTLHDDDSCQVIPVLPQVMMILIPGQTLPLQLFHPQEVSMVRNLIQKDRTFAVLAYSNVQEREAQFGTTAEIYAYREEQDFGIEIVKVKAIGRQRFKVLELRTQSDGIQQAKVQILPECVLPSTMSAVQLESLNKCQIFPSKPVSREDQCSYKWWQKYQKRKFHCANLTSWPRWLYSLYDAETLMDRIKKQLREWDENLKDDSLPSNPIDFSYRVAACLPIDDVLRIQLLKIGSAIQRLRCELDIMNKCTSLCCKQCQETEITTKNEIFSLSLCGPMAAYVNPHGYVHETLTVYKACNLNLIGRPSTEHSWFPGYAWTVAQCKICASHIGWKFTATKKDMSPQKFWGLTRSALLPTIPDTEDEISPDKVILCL

[2] = biological target: T1, Protein cereblon/Tyrosine-protein kinase BTK; assay: PROTAC activity at BTK/CRBN in human MINO cells assessed as BTK protein degradation half life at 20 nM by Western blotting analysis; assay type: cell-based
[3] = biological target: Tyrosine-protein kinase BTK (Homo sapiens, UniProt Q06187); assay: Binding affinity to BTK (unknown origin) assessed as inhibition constant measured after 60 mins incubation by microtiter-plate reader
Sequence of Tyrosine-protein kinase BTK (Q06187 whole entry): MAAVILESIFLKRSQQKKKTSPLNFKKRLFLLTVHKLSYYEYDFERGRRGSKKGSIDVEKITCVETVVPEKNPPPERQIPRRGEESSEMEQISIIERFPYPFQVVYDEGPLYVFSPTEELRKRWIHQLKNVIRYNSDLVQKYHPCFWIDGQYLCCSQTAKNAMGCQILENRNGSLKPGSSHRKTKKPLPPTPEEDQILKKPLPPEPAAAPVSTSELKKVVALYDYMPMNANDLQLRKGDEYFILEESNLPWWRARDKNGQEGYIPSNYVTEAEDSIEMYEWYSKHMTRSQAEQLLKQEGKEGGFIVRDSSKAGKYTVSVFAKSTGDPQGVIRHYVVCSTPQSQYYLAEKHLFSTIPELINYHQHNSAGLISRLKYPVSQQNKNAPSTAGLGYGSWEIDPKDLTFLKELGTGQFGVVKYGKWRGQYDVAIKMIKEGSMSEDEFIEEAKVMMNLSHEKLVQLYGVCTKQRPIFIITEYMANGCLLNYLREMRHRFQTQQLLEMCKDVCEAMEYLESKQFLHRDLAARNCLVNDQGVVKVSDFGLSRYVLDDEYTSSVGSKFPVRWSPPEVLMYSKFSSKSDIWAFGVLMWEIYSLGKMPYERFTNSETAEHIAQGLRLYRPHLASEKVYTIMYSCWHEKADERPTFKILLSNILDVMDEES

[4] = biological target: T2, Protein cereblon/Tyrosine-protein kinase BTK (Mus musculus) (UniProt P35991+Q8C7D2); assay: PROTAC activity at BTK/CRBN in mCSF/RANKL-stimulated C57BL/6J mouse BMDM assessed as reduction in phosphorylated PLCgamma2 protein level at 25 to 100 nM followed by stimulated with mCSF/RANKL measured after 2 hrs by Western blotting analysis; assay type: cell-based; conditions: dose 25-100 nM
T2 sequence (P35991 whole entry, looked up): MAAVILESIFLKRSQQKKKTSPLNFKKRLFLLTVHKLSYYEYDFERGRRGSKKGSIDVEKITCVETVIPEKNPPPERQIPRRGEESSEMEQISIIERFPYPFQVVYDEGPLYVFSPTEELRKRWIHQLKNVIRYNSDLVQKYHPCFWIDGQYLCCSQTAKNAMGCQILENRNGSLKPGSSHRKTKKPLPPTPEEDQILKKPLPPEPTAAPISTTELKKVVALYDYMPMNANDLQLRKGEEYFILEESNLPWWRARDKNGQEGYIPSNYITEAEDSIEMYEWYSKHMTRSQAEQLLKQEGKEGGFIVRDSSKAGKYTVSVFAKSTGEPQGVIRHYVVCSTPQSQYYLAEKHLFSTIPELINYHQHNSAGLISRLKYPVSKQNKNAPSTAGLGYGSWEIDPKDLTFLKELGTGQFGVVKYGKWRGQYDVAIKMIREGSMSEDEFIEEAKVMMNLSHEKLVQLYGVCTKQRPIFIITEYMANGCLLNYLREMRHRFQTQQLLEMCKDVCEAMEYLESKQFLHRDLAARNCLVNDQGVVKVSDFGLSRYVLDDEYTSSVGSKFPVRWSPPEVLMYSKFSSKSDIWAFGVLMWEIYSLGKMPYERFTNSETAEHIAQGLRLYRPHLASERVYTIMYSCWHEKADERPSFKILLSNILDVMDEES
T2 sequence (Q8C7D2 whole entry, looked up): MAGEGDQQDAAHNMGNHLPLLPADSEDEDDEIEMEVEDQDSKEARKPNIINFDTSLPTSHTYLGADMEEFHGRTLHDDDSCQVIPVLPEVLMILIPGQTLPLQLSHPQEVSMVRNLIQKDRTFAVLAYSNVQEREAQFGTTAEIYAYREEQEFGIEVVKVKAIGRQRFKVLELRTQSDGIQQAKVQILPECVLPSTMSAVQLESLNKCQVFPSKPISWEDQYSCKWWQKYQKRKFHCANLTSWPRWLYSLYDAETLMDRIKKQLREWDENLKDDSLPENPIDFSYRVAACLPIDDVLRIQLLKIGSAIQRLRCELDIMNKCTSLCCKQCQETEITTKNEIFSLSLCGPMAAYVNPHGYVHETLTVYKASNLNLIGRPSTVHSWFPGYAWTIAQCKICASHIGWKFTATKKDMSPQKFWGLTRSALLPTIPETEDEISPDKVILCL

[5] = biological target: T2, Protein cereblon/Tyrosine-protein kinase BTK (Mus musculus); assay: PROTAC activity at BTK/CRBN in mCSF/RANKL-stimulated C57BL/6J mouse BMDM assessed as reduction in phosphorylated JNK protein level at 25 to 100 nM followed by stimulated with mCSF/RANKL measured after 2 hrs by Western blotting analysis; assay type: cell-based; conditions: dose 25-100 nM
[6] = biological target: T2, Protein cereblon/Tyrosine-protein kinase BTK (Mus musculus); assay: PROTAC activity at BTK/CRBN in C57BL/6J mouse BMDM assessed as reduction in mCSF/RANKL-stimulated intracellular calcium influx by measuring fluorescence intensity measured after 2 hrs by Fluo-4/AM-fluorescent assay; assay type: cell-based; conditions: dose 25-100 nM
BMMC [7] = assay: Inhibition of RANKKL-induced upregulation of osteoclast related genes in C57BL/6J mouse BMM cells assessed as reduction in mCSF/RANKL-stimulated Dcstamp-gene expression at 25 to 100 nM followed by stimulated with mCSF/RANKL measured after 2 hrs by qPCR analysis; assay type: functional, cell-based; conditions: dose 25-100 nM
[8] = biological target: T2, Protein cereblon/Tyrosine-protein kinase BTK (Mus musculus); assay: PROTAC activity at BTK/CRBN in C57BL/6J mouse BMM cells assessed as reduction in mCSF/RANKL-stimulated NFATc1 protein expression at 25 to 100 nM followed by stimulated with mCSF/RANKL measured after 2 hrs by Western blot analysis; assay type: cell-based; conditions: BMDM, dose 25-100 nM
BMMC [9] = assay: Cytotoxicity against C57BL/6J mouse BMM cells assessed as cell viability at 10 uM measured after 1 to 2 hrs by CCK8 assay; assay type: toxicity, cell-based; conditions: time 1-2 hrs
Mus musculus [10] = assay: Antiosteoclastogenic effects in LPS-soaked ligature-induced C57BL/6J mouse periodontal disease model assessed as reduction in periodontal alveolar bone loss at 30 mg/kg, ip treated on day 0, 1,4, 7 and measured on day 10 by Micro-CT 3D scan; assay type: functional, organism-based; conditions: time 7.0 day
Mus musculus [11] = assay: (§1) Antiosteoclastogenic effects in LPS-soaked ligature-induced C57BL/6J mouse periodontal disease model assessed as reduction in periodontal alveolar bone loss by measuring distance between the cemento-enamel junction (CEJ) at 10 to 30 mg/kg, ip treated on day 0, 1,4, 7 and measured on day 10 by Micro-CT 3D scan; assay type: functional, organism-based; conditions: dose 10-30 mg/kg, time 7.0 day
Mus musculus [12] = assay: as §1, with “alveolar bone crest (ABC)” for “cemento-enamel junction (CEJ)”; assay type: functional, organism-based; conditions: dose 10-30 mg/kg, time 7.0 day
Mus musculus [13] = assay: Antiosteoclastogenic effects in LPS-soaked ligature-induced C57BL/6J mouse periodontal disease model assessed as reduction in periodontal alveolar bone loss by measuring increase in bone volume per tissue volume (BV/TV%) at 10 to 30 mg/kg, ip treated on day 0, 1,4, 7 and measured on day 10 by Micro-CT 3D scan; assay type: functional, organism-based; conditions: dose 10-30 mg/kg, time 7.0 day
[14] = AUC (0 to t) in Sprague-Dawley rat at 4 mg/kg, ip measured upto 48 hrs; assay type: ADME, organism-based; conditions: in vivo
[15] = Cmax in Sprague-Dawley rat at 4 mg/kg, ip measured upto 48 hrs; assay type: ADME, organism-based; conditions: in vivo
[16] = AUC (0 to t) in Sprague-Dawley rat at 2 mg/kg, iv measured upto 48 hrs; assay type: ADME, organism-based; conditions: in vivo
[17] = Half life in Sprague-Dawley rat at 2 mg/kg, iv measured upto 48 hrs; assay type: ADME, organism-based; conditions: in vivo
[18] = Apparent volume of distribution in Sprague-Dawley rat at 2 mg/kg, iv measured upto 48 hrs; assay type: ADME, organism-based; conditions: in vivo, read-out: Vz
[19] = Clearance in Sprague-Dawley rat at 2mg/kg, iv measured upto 48 hrs; assay type: ADME, organism-based; conditions: in vivo
[20] = Cmax in Sprague-Dawley rat at 2 mg/kg, iv measured upto 48 hrs; assay type: ADME, organism-based; conditions: in vivo

Activity [1]: 99% | T1/2 [2]: 0.59 h | Ki [3]: 152 nM | Activity [4]: Active | Activity [5]: Active | Activity [6]: Dose-Dependent Effect | Activity [8]: Active | AUC(0-t) at 48 h [14]: 2800 ng·h/mL | Cmax [15]: 184 ng/mL | AUC(0-t) at 48 h [16]: 2340 ng·h/mL | half-life [17]: 7.03 h | Vd [18]: 9.29 L/kg | clearance [19]: 15.2 mL/min/kg | Cmax [20]: 645 ng/mL
SMILES: Cc1cc(-c2nc(Nc3cnn(C4CCN(CC5CCN(c6ccc7c(c6)C(=O)N(C6CCC(=O)NC6=O)C7=O)CC5)CC4)c3)ncc2F)ccc1CNC(=O)c1cn(C(C)(C)C)nn1 (stereo not given)
inhibition (BMMC [7]): Active | Activity (BMMC [9]): Non-Toxic | Activity (Mus musculus [10]): Active | Activity (Mus musculus [11]): Active | Activity (Mus musculus [12]): Active | Activity (Mus musculus [13]): Active
